Columns and labels:
[1] = biological target: T1, GluN2B glutamate receptors (Homo sapiens, UniProt Q05586+Q13224); assay: Whole-cell patch clamp of mammalian cells (Ionworks Barracuda, IWB), NMDA potentiation (PAM), GluN2B; format: cell-based; conditions: peak current amplitude; for GluN2B PCA IWB Ephys % potentiation at 3 μM: 3 μM test compound, co-application with EC20 L-glutamate and 30 μM glycine; for EC50: 8-point concentration-response, read-out: GluN2B PCA EC50; for Emax: maximal potentiation, read-out: GluN2B PCA Emax (%)
T1 construct: expressed in transfected cells
Procedure: (§1) NMDA potentiation in mammalian cells which expressed NMDA receptors was assessed using the whole cell patch clamp to determine the PAM activity of compounds as described below. An automatic patch-clamp system can be used determine the […] activity of compounds as described below.
(§2) The whole-cell patch-clamp technique was used to investigate the effects of positive allosteric modulating activity of test compounds on GlunN1/GluN2A and GluN2B glutamate receptors expressed in mammalian cells.
(§3) Test article effects were evaluated in 8-point concentration-response format (4 replicate wells/concentration). All test and control solutions contained 0.3% DMSO and 0.01% Kolliphor® EL (C5135, Sigma). The test article formulations were loaded in a 384-well compound plate using an automated liquid handling system (SciClone ALH3000, Caliper LifeSciences). The measurements were performed using Ion Works Barracuda platform following this procedure:
(§4) • a) Intracellular solution (mM): 50 mM CsCl, 90 mM CsF, 2 mM MgCl2, 5 mM EGTA, 10 mM HEPES. Adjust to pH 7.2 with CsOH. • b) Extracellular solution, HB-PS (composition in mM): NaCl, 137; KCl, 1.0; CaCl2, 5; HEPES, 10; Glucose, 10; pH adjusted to 7.4 with NaOH (refrigerated until use). • c) Holding potential: −70 mV, potential during agonist/PAM application: −40 mV. Recording Procedure: • a) Extracellular buffer will be loaded into the PPC plate wells (11 μL per well). Cell suspension will be pipetted into the wells (9 μL per well) of the PPC planar electrode. • b) Whole-cell recording configuration will be established via patch perforation with membrane currents recorded by on-board patch clamp amplifiers. • c) Two recordings (scans) will be performed. First, during pre-application of test article alone (duration of pre-application—5 min) and second, during test articles and agonist (EC20 L-glutamate and 30 μM glycine) co-application to detect positive modulatory effects of the test article.
(§5) Test Article Administration: The first pre-application will consist of the addition of 20 μL of 2× concentrated test article solution and, second, of 20 μL of 1× concentrated test article and agonist at 10 μL/s (2 second total application time).
(§6) Potentiating effect of positive allosteric modulators (PAM) on the channel will be calculated as % activation=(IPAM/IEC10-30)×100%−100% where IPAM will be the L-glutamate EC10-30-elicited current in presence of various concentrations of test articles and IEC20 will be the mean current elicited with L-glutamate EC20. PAM concentration-response data will be fitted to an equation of the form: % Activation=% L-glutamate EC20+{(% MAX−% L-glutamate EC20)/[1+([Test]/EC50)^N]} where [Test] will be the concentration of PAM (test article), EC50 will be the concentration of PAM producing half-maximal activation, N will be the Hill coefficient, % L-glutamate EC20 will be the percentage of the current Elicited with L-glutamate EC20, % MAX is the percentage of the current activated with the highest dose of PAM co-admitted with L-glutamate EC20 and % Activation will be the percentage of the current elicited with L-glutamate EC10-30 at each PAM concentration.
(§7) The maximal amplitude of the evoked currents are measured and defined as Peak Current Amplitude (PCA).

[2] = biological target: T2, GlunN1/GluN2A glutamate receptors (Homo sapiens, UniProt Q05586+Q12879); assay: Whole-cell patch clamp of mammalian cells (Ionworks Barracuda, IWB), NMDA potentiation (PAM), GluN2A; format: cell-based; conditions: peak current amplitude; for GluN2A PCA IWB Ephys % potentiation at 3 μM: 3 μM test compound, co-application with EC20 L-glutamate and 30 μM glycine; for EC50: 8-point concentration-response, read-out: GluN2A PCA EC50; for Emax: maximal potentiation, read-out: GluN2A PCA Emax (%)
T2 construct: expressed in transfected cells
Procedure: as §1, §2
HEK293 cells were transformed with adenovirus 5 DNA and transfected with cDNA encoding the human GRIN1/GRIN2A genes. Stable transfectants were selected using G418 and Zeocin-resistance genes incorporated into the expression plasmid and selection pressure maintained with G418 and Zeocin in the medium. Cells were cultured in Dulbecco's Modified Eagle Medium/Nutrient Mixture (D-MEM/F-12) supplemented with 10% fetal bovine serum, 100 μg/ml penicillin G sodium, 100 μg/ml streptomycin sulphate, 100 μg/ml Zeocin, 5 μg/ml blasticidin and 500 μg/ml G418.
as §3, §4, §5, §6, §7

T1 sequence (Q13224 27-1484, other chains not shown): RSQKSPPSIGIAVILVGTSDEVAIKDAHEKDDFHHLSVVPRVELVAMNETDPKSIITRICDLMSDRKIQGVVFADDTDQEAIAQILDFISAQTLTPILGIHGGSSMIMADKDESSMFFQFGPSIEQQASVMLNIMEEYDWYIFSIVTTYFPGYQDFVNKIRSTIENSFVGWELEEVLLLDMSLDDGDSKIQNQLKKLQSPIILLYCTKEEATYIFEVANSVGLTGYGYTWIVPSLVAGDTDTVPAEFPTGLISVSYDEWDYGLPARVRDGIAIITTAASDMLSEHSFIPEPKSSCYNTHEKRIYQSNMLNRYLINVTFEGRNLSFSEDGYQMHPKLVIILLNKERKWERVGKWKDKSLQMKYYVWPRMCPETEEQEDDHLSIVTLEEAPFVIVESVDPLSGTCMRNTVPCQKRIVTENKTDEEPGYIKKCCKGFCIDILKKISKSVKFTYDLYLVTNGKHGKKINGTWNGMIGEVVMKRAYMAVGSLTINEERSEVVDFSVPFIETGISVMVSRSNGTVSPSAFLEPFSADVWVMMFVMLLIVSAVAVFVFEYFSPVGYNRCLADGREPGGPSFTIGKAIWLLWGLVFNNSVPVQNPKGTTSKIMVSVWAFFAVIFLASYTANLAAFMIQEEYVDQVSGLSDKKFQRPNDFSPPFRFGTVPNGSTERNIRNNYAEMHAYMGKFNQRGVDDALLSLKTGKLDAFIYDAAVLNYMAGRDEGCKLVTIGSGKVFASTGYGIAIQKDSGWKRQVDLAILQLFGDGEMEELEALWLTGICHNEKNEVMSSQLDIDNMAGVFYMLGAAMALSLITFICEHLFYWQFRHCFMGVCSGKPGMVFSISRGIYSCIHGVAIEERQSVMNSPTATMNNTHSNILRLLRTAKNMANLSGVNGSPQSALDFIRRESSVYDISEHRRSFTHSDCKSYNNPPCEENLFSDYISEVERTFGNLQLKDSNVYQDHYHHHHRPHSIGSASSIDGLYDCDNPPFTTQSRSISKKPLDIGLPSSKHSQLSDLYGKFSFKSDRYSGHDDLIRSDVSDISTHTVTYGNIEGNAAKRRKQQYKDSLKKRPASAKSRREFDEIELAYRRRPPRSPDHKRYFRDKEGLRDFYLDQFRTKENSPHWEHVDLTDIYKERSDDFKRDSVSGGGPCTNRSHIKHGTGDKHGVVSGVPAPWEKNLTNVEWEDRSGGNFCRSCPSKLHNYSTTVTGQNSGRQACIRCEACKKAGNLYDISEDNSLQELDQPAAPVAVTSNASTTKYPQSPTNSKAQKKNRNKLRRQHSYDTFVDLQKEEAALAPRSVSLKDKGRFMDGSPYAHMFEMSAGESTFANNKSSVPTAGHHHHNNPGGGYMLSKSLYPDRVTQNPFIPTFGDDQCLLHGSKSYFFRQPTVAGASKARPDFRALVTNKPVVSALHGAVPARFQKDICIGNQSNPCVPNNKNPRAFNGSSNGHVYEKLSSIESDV
T2 sequence (Q12879 23-1464, other chains not shown): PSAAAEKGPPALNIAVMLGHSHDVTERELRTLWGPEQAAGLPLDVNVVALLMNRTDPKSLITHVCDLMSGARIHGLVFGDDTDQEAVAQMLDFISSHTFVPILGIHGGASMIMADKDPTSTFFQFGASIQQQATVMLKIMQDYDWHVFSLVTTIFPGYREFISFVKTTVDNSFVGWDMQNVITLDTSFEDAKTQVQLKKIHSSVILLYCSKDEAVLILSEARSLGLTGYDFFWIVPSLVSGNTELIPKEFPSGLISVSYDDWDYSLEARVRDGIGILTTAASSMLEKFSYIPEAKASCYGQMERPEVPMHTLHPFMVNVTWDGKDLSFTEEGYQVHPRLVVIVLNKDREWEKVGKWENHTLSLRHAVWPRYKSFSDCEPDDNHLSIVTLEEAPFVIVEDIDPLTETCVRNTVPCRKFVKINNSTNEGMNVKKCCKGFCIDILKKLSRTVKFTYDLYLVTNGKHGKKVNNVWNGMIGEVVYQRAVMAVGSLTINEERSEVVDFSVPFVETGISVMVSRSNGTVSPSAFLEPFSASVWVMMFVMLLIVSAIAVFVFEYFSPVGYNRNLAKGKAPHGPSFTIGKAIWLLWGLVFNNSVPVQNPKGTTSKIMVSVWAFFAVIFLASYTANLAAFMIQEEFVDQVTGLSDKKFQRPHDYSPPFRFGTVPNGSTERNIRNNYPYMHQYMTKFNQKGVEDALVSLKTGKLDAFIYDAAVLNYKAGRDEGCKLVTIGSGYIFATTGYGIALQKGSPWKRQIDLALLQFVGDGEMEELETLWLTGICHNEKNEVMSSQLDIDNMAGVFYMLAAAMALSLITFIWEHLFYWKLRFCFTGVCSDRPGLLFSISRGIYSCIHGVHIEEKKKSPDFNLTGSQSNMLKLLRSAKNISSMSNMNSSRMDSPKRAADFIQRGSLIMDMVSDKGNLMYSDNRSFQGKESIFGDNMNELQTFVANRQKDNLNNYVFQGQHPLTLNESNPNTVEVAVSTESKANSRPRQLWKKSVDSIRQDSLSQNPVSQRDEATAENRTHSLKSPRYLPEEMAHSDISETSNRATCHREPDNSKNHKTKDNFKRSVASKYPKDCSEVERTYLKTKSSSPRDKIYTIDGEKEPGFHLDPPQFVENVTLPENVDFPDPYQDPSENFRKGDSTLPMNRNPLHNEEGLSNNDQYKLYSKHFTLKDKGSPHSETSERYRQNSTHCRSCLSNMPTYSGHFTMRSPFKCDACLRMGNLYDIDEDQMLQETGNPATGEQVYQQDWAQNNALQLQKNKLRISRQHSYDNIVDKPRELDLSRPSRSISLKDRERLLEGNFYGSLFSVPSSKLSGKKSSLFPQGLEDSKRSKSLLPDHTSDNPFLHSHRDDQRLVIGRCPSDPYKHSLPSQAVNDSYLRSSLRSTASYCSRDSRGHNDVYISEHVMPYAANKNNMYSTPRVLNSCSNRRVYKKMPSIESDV

Structure (SMILES) | GluN2B PCA IWB Ephys % potentiation at 3 μM [1] | EC50 [1] [nM] | Emax [1] [%] | GluN2A PCA IWB Ephys % potentiation at 3 μM [2] | EC50 [2] [nM] | Emax [2] [%]
C[C@H](CCC(C)(C)O)[C@H]1CC[C@H]2[C@@H]3CC=C4C[C@@](C)(O)CC[C@]4(C)[C@H]3C(C)(O)C[C@]12C (some centres unmarked) [Compound 11] | B (“B” indicates potentiation of >100%) | 1000 to 10000 | 100 to 500 | B (“B” indicates potentiation of >100%) | 500 to 1000 | 100 to 500
CC[C@]1(O)CC[C@@]2(C)C(=CC[C@H]3[C@@H]4CC[C@H]([C@H](C)CCC(C)(C)O)[C@@]4(C)CC(=O)[C@@H]32)C1 [Compound 5] |  | 100 to 500 | 100 to 500 |  | 100 to 500 | 100 to 500
CC[C@]1(O)CC[C@@]2(C)C(=CC[C@H]3[C@@H]4CC[C@H]([C@H](C)CC[C@@H](O)C(C)C)[C@@]4(C)CC(=O)[C@@H]32)C1 [Compound 6] |  | 1 to 100 | 100 to 500 |  | 1 to 100 | 100 to 500
C[C@H](CCC(C)(C)O)[C@H]1CC[C@H]2[C@@H]3CC=C4C[C@@H](O)CC[C@]4(C)[C@H]3[C@@H](O)C[C@]12C [Compound 3] | B (“B” indicates potentiation of >100%) | 500 to 1000 | 100 to 500 | A (“A” indicates % potentiation up to 100%) | ≥ 10000 | < 100
CC[C@]1(O)CC[C@@]2(C)C(=CC[C@H]3[C@@H]4CC[C@H]([C@H](C)CC[C@@H](O)C(C)(C)C)[C@@]4(C)CC(=O)[C@@H]32)C1 [Compound 10] |  | 1 to 100 | 100 to 500 |  | 1 to 100 | > 500
CC[C@]1(O)CC[C@@]2(C)C(=CC[C@H]3[C@@H]4CC[C@H]([C@H](C)CC[C@H](O)C(C)C)[C@@]4(C)CC(=O)[C@@H]32)C1 [Compound 7] |  | 1 to 100 | 100 to 500 |  | 1 to 100 | 100 to 500
C[C@H](CCC(C)(C)O)[C@H]1CC[C@H]2[C@@H]3CC[C@H]4C[C@@H](O)CC[C@]4(C)[C@H]3C(=O)C[C@]12C [Compound 2] | A (“A” indicates % potentiation up to 100%) | 500 to 1000 | < 100 | A (“A” indicates % potentiation up to 100%) | 1000 to 10000 | < 100
C[C@H](CCC(C)(C)O)[C@H]1CC[C@H]2[C@@H]3CC=C4C[C@@H](O)CC[C@]4(C)[C@H]3C(=O)C[C@]12C [Compound 4] | B (“B” indicates potentiation of >100%) | 100 to 500 | 100 to 500 | B (“B” indicates potentiation of >100%) | 100 to 500 | 100 to 500
CC[C@]1(O)CC[C@@]2(C)C(=CC[C@H]3[C@@H]4CC[C@H]([C@H](C)CC[C@H](O)C(C)(C)C)[C@@]4(C)CC(=O)[C@@H]32)C1 [Compound 9] |  | 1 to 100 | 100 to 500 |  | 1 to 100 | > 500
C[C@H](CCC(C)(C)O)[C@H]1CC[C@H]2[C@@H]3CC[C@H]4C[C@@](C)(O)CC[C@]4(C)[C@H]3C(=O)C[C@]12C [Compound 1] | B (“B” indicates potentiation of >100%) | 500 to 1000 | 100 to 500 | B (“B” indicates potentiation of >100%) | 500 to 1000 | 100 to 500
